Data taken from US10934274B2, “Quinoline derivatives as TAM RTK inhibitors” (Qurient Co., Ltd., priority 2015, dated 2021).

Assays:
Met = target: T1, Met (Homo sapiens, UniProt P08581); assay: LanthaScreen Eu kinase binding assay, Met; details: Tracer 236, read-out: cMet kinase binding activity (Kd)
T1 construct: purchased Life Technologies

Axl = target: T2, Axl (Homo sapiens, UniProt P30530); assay: LanthaScreen Eu kinase binding assay, Axl; details: Tracer 236
T2 construct: purchased Life Technologies
T2 sequence (P30530 26-894): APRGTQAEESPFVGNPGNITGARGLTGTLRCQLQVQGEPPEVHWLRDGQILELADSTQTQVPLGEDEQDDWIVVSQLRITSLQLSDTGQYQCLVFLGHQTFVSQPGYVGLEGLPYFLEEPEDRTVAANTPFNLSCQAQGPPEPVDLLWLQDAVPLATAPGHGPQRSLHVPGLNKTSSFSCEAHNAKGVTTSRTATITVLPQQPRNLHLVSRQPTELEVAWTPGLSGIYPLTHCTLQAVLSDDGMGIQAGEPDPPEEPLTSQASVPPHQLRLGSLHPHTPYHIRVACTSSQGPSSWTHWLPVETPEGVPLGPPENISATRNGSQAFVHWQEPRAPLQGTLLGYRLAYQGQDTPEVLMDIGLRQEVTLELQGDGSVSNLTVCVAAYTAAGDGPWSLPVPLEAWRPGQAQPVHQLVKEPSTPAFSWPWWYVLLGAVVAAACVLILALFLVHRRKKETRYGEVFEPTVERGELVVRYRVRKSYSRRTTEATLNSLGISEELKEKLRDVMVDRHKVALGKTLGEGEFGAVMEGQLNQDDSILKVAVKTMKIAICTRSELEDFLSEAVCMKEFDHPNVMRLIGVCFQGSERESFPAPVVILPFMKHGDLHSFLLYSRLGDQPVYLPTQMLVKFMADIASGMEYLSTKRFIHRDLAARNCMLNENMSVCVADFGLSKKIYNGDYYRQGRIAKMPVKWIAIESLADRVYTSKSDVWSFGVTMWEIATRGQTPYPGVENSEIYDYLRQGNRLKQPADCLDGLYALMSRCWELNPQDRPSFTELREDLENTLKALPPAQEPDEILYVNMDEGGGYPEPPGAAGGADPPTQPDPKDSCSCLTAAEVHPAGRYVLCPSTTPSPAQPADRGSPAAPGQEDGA

Mer = target: T3, Mer (Homo sapiens, UniProt Q12866); assay: LanthaScreen Eu kinase binding assay, Mer; details: Tracer 236
T3 construct: purchased Life Technologies
T3 sequence (Q12866 21-999): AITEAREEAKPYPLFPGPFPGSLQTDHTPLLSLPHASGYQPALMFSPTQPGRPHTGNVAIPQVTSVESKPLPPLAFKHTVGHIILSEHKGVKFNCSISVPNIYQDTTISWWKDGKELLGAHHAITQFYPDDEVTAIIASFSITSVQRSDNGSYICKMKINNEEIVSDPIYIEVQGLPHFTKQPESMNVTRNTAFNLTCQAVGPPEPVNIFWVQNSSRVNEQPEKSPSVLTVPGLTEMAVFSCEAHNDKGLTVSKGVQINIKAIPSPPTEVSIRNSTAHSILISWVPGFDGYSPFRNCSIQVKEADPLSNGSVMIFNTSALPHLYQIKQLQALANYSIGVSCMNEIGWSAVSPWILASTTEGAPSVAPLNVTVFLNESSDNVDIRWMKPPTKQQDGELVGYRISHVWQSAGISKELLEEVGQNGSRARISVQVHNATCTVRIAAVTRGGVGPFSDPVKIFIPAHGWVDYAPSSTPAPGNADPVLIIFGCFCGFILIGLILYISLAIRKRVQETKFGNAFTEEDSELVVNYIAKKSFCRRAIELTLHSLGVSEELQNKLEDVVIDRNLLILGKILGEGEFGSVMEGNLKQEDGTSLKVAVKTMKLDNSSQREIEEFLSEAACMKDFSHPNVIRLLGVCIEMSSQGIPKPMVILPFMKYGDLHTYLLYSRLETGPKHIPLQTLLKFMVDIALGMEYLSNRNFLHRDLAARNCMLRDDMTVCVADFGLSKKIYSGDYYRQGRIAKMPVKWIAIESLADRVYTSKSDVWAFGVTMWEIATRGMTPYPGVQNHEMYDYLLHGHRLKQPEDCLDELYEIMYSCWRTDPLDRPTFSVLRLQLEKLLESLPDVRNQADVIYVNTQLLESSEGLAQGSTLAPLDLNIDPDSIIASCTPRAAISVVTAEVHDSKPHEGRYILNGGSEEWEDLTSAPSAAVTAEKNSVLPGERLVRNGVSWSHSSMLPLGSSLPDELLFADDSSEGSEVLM

T1 sequence (P08581 25-1390): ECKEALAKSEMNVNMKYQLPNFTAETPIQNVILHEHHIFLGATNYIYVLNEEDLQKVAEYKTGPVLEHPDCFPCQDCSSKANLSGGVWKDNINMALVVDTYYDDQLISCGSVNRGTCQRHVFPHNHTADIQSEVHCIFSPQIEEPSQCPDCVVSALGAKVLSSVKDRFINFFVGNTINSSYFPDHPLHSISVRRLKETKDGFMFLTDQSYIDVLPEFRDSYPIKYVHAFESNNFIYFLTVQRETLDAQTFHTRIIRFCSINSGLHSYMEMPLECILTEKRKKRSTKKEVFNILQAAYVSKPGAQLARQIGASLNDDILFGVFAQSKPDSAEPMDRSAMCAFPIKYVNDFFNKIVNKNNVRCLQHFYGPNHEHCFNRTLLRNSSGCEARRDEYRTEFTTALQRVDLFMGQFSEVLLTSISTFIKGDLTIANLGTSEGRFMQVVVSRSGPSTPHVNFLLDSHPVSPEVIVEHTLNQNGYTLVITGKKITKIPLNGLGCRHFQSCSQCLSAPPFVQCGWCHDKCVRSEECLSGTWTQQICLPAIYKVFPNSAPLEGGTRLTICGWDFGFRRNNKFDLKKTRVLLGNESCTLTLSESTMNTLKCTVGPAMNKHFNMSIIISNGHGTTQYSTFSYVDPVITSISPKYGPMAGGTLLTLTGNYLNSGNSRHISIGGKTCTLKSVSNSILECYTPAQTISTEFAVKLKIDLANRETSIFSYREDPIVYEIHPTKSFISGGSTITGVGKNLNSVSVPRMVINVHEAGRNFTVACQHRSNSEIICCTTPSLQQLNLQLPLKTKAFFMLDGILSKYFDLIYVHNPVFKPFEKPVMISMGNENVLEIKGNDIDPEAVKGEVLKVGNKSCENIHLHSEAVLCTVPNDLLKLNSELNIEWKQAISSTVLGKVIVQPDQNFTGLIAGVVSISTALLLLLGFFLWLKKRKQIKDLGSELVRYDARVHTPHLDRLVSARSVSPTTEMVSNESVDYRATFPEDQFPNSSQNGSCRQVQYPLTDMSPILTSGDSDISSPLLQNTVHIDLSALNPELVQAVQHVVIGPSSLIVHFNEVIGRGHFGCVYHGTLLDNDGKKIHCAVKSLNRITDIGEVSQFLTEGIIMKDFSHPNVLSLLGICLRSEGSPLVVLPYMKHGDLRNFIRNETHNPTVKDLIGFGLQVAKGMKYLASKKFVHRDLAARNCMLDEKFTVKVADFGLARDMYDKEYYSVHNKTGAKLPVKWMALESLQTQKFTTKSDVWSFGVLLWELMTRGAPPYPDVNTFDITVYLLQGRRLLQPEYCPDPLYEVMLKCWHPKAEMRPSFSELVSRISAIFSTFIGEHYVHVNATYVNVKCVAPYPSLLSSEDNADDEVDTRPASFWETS

| Kd (Met) | Kd (Axl) | Kd (Mer) | SMILES |
| --- | --- | --- | --- |
| < 100 nM | < 100 nM | < 100 nM | CCOc1oc(-c2cccnc2)nc1C(=O)Nc1ccc(Oc2ccnc3cc(OC)c(OC)cc23)cn1 [Compound 44] |
| 100 to 1000 nM | < 100 nM | < 100 nM | CCOc1cn(CC2CCO2)nc1C(=O)Nc1ccc(Oc2ccnc3cc(OC)c(OC)cc23)cn1 (stereo not drawn) [Compound 48] |
| 100 to 1000 nM | < 100 nM | 100 to 1000 nM | CCOc1cn(-c2cnc(C#N)nc2)nc1C(=O)Nc1ccc(Oc2ccnc3cc(OC)c(OC)cc23)cn1 [Compound 55] |
| 100 to 1000 nM | < 100 nM | 100 to 1000 nM | CCOc1cnn(-c2ccco2)c1C(=O)Nc1ccc(Oc2ccnc3cc(OC)c(OC)cc23)cn1 [Compound 58] |
| < 100 nM | < 100 nM | < 100 nM | CCOc1cn(CCOC)nc1C(=O)Nc1ccc(Oc2ccnc3cc(OC)c(OC)cc23)cn1 [Compound 64] |
| < 100 nM | < 100 nM | < 100 nM | CCOc1cn(-c2cnccc2CCN(C)C)nc1C(=O)Nc1ccc(Oc2ccnc3cc(OC)c(OC)cc23)cn1 [Compound 65] |
| 100 to 1000 nM | < 100 nM | < 100 nM | CCOc1cn(CC(C)=O)nc1C(=O)Nc1ccc(Oc2ccnc3cc(OC)c(OC)cc23)cn1 [Compound 66] |
| 100 to 1000 nM | 100 to 1000 nM | 100 to 1000 nM | CCOc1cn(C2CCN(C)C2)nc1C(=O)Nc1ccc(Oc2ccnc3cc(OC)c(OC)cc23)cc1F (stereo not drawn) [Compound 212] |
| ≥ 1000 nM | ≥ 1000 nM | 100 to 1000 nM | CCOc1cnn(C2CCCN(C)C2)c1C(=O)Nc1ccc(Oc2ccnc3cc(OC)c(OC)cc23)cc1F (stereo not drawn) [Compound 213] |
| < 100 nM | < 100 nM | < 100 nM | CCOc1cn(Cc2cnccn2)nc1C(=O)Nc1ccc(Oc2ccnc3cc(OC)c(OC)cc23)cc1F [Compound 215] |
| 100 to 1000 nM | < 100 nM | < 100 nM | CCOc1cn(C2CCCN(C(C)=O)C2)nc1C(=O)Nc1ccc(Oc2ccnc3cc(OC)c(OC)cc23)cc1F (stereo not drawn) [Compound 224] |
| 100 to 1000 nM | < 100 nM | < 100 nM | CCOc1cn(C2CCCN(C(N)=O)C2)nc1C(=O)Nc1ccc(Oc2ccnc3cc(OC)c(OC)cc23)cc1F (stereo not drawn) [Compound 225] |

More lines, now with the values behind:

| SMILES | Kd (Met) | Kd (Axl) | Kd (Mer) |
| --- | --- | --- | --- |
| CCOc1cn(-c2ccc(C#N)cn2)nc1C(=O)Nc1ccc(Oc2ccnc3cc(OC)c(OC)cc23)cn1 [Compound 43] | ≥ 1000 nM | ≥ 1000 nM | ≥ 1000 nM |
| CCOc1sc(-c2cccnc2)nc1C(=O)Nc1ccc(Oc2ccnc3cc(OC)c(OC)cc23)cn1 [Compound 45] | < 100 nM | < 100 nM | < 100 nM |
| CCOc1cn(-c2ccn(C)c2)nc1C(=O)Nc1ccc(Oc2ccnc3cc(OC)c(OC)cc23)cn1 [Compound 56] | < 100 nM | < 100 nM | < 100 nM |
| CCOc1cn(-c2ccco2)nc1C(=O)Nc1ccc(Oc2ccnc3cc(OC)c(OC)cc23)cn1 [Compound 57] | < 100 nM | < 100 nM | < 100 nM |
| CCOc1cn(-c2ncco2)nc1C(=O)Nc1ccc(Oc2ccnc3cc(OC)c(OC)cc23)cn1 [Compound 59] | < 100 nM | < 100 nM | < 100 nM |
| CCOc1cn(-c2cnccc2CCCN(C)C)nc1C(=O)Nc1ccc(Oc2ccnc3cc(OC)c(OC)cc23)cn1 [Compound 61] | < 100 nM | < 100 nM | < 100 nM |
| CCOc1cn(C(C)(C)C(=O)NC)nc1C(=O)Nc1ccc(Oc2ccnc3cc(OC)c(OC)cc23)cn1 [Compound 68] | 100 to 1000 nM | < 100 nM | < 100 nM |
| CCOc1cn(-c2cnccc2CN(C)C)nc1C(=O)Nc1ccc(Oc2ccnc3cc(OC)c(OC)cc23)cn1 [Compound 73] | 100 to 1000 nM | < 100 nM | < 100 nM |
